Earlier results in patent publication US20030129616A1, “Use of a mutation in the gene for the beta3-subunit of human g-protein” (priority 2000, published 2003).

Tested on: bladder tumor cells

Substance: pertussis toxin
- migration of bladder tumor cells: greatly inhibited
